Results as given in publication PMC4987650, “Structural Investigation of Park’s Nucleotide on Bacterial Translocase MraY: Discovery of Unexpected MraY Inhibitors” (Scientific Reports, 2016).

Tests used:
Format in all cases: biochemical
[1] = target: T1, MraYBS F228A mutant (Bacillus subtilis, UniProt Q03521, F228A); experiment: Fluorescent enhancement assay, mutant MraY; details: 6 as the substrate
T1 construct: MBP; made in house
Method: (§1) Site–directed mutagenesis of MraY. Site-directed mutagenesis of the B. subtilis MBP-tagged MraY enzyme was performed directly on the pMAL -BS-MraY-16 expression plasmid by using the “Quickchanged XL Site-Directed Mutagenesis Kit ’’ from stratagene and the oligonucleotides shown below. Mutations introduced in the mraY gene sequence were checked by DNA sequencing. […]
(§2) MraY-T51A-R 5’-[…]-3’
(§3) T53A MraY-T53A-F 5’-[…]-3’
(§4) MraY-T53A-R 5’-[…]-3’
(§5) K102A MraY-K102A-F 5’-[…]-3’
(§6) MraY-K102A-R 5’-[…]-3’
(§7) K226A Mray-K226A-F 5’-[…]-3’ […]
(§8) F228A MraY-F228A-F 5’-[…]-3’
(§9) MraY-F228A-R 5’-[…]-3’
(§10) Q271A Mray-Q271A-F 5’-[…]-3’
(§11) Mray-Q271A-R 5’-[…]-3’
(§12) R281A MraY-R281A-F 5’-[…]-3’
(§13) MraY-R281A-R 5’-[…]-3’
(§14) W297A MraY-W297A-F 5’-[…]-3’
(§15) MraY-W297A-R 5’-[…]-3’
(§16) Determine kinetic parameters by MraY fluorescence enhancement assay. The fluorescence enhancement assay was performed in 384-well plate as described by Bugg et al. with slight modifications.5 The reaction mixture containing MraYBS (10 μg/mL), C55P (200 μM) in 30 μL reaction buffer (30 mM Tris, 10 mM MgCl2, 10 mM NaCl, 0.1 mM Tween-20, 2.5% DMSO, pH 8.0) were pre-incubated at 37 °C for 15 min. The reactions were initiated by the addition of various concentrations of NBD-Park’s nucleotide 6 (0 to 160 μM). For inhibition study, a various concentrations of inhibitors were added before the addition of substrate 6. The continuous fluorescence increase over 60 min was monitored with λex 466 nm/λem 535 nm by fluorescence microplate reader (SpectraMax M5, Molecular Devices, LLC) at 37 °C. Linear regressions of increased fluorescent units (FLU) versus time (min) were used to calculate the initial velocities for each reaction. The kinetic parameters values (Ki, KM, and Vmax) were obtained by nonlinear regression analysis using the […] equation with the GraphPad Prism program (GraphPad Software, San
(§17) (1 picture or pasted object on this page, not shown here)

[2] = target: T2, MraYBS K102A mutant (Bacillus subtilis, UniProt Q03521, K102A); experiment: Fluorescent enhancement assay, mutant MraY; details: 6 as the substrate
T2 construct: MBP; made in house
Method: as §1, §2, §3, §4, §5, §6, §7, §8, §9, §10, §11, §12, §13, §14, §15, §16, §17

[3] = target: T3, MraYBS K226A mutant (Bacillus subtilis, UniProt Q03521, K226A); experiment: Fluorescent enhancement assay, mutant MraY; details: 6 as the substrate
T3 construct: MBP; made in house
Method: as §1, §2, §3, §4, §5, §6, §7, §8, §9, §10, §11, §12, §13, §14, §15, §16, §17

[4] = target: T4, MraYBS Q271A mutant (Bacillus subtilis, UniProt Q03521, Q271A); experiment: Fluorescent enhancement assay, mutant MraY; details: 6 as the substrate
T4 construct: MBP; made in house
Method: as §1, §2, §3, §4, §5, §6, §7, §8, §9, §10, §11, §12, §13, §14, §15, §16, §17

[5] = target: T5, MraYBS R281A mutant (Bacillus subtilis, UniProt Q03521, R281A); experiment: Fluorescent enhancement assay, mutant MraY; details: 6 as the substrate
T5 construct: MBP; made in house
Method: as §1, §2, §3, §4, §5, §6, §7, §8, §9, §10, §11, §12, §13, §14, §15, §16, §17

[6] = target: T6, MraYBS T51A mutant (Bacillus subtilis, UniProt Q03521, T51A); experiment: Fluorescent enhancement assay, mutant MraY; details: 6 as the substrate
T6 construct: MBP; made in house
Method: as §1, §2, §3, §4, §5, §6, §7, §8, §9, §10, §11, §12, §13, §14, §15, §16, §17

[7] = target: T7, MraYBS T53A mutant (Bacillus subtilis, UniProt Q03521, T53A); experiment: Fluorescent enhancement assay, mutant MraY; details: 6 as the substrate
T7 construct: MBP; made in house
Method: as §1, §2, §3, §4, §5, §6, §7, §8, §9, §10, §11, §12, §13, §14, §15, §16, §17

[8] = target: T8, MraYBS W297A mutant (Bacillus subtilis, UniProt Q03521, W297A); experiment: Fluorescent enhancement assay, mutant MraY; details: 6 as the substrate
T8 construct: MBP; made in house
Method: as §1, §2, §3, §4, §5, §6, §7, §8, §9, §10, §11, §12, §13, §14, §15, §16, §17

[9] = target: T7, MraYBS T53A mutant; experiment: HPLC-based MraY functional assay, mutant MraY; details: consumption of 6 in one-hour reaction
Method: (§18) The purified MraY from Bacillus subtilis was prepared as described in our previous reports. For 5 and 7–10, the reaction mixture containing MraYBS (10 μg/mL), C55P (200 μM) in 40 μL reaction buffer (30 mM Tris, 10 mM MgCl2, 10 mM NaCl, 0.1 mM Tween-20, 2.5% DMSO, pH 8.0) were pre-incubated at 37 °C for 15 min. The reactions were initiated by the addition of Park’s nucleotide analogues (10 μM) and incubated at 37 °C for 1 h. The reaction mixtures were added by uridine (0.01 mg/mL) as the internal standard and heated to 100 °C to stop the transferring reaction. The samples were analyzed by RP-C18 HPLC with gradient elution of 0.25 M NH4HCO3(aq)/15% MeOH in water (100:0 to 0:100) at a flow rate of 1 mL/min over 45 min, and the peaks of substrates were monitored at UV 260 nm. […] The reaction mixtures were heated to 100 °C to stop the transferring reaction, and samples were analyzed by an anion-exchange column (SAX1, Supelco Co., 5 μm, 4.6 × 250 mm) with a linear gradient elution of NH4OAc (20 mM to 1 M in MeOH) at a flow rate of 1.0 mL/min over 30 min. The fluorescent substrates were monitored with λex 466 nm/λem 535 nm by fluorescence detector. […]

[10] = target: T3, MraYBS K226A mutant; experiment: HPLC-based MraY functional assay, mutant MraY; details: consumption of 6 in one-hour reaction
Method: as §18

[11] = target: T5, MraYBS R281A mutant; experiment: HPLC-based MraY functional assay, mutant MraY; details: consumption of 6 in one-hour reaction
Method: as §18

`CC(=O)N[C@H]1[C@@H](OP(=O)(O)OP(=O)(O)OC[C@H]2O[C@@H](n3ccc(=O)[nH]c3=O)[C@H](O)[C@@H]2O)O[C@H](CO)[C@@H](O)[C@@H]1O[C@H](C)C(=O)N[C@@H](C)C(=O)N[C@H](CCC(=O)N[C@@H](CCCCNC(=O)CCCCCNc1ccc([N+](=O)[O-])c2nonc12)C(=O)N[C@H](C)C(=O)N[C@H](C)C(=O)O)C(=O)O` [Compound 6, NBD-Park’s nucleotide] was tested, and the Vmax [1] was 10 ± 1.5 FLU/min, the Vmax [2] was 5 ± 0.2 FLU/min and the Vmax [3] was 23 ± 4.7 FLU/min. For the same compound, the Vmax [4] was 6 ± 1.7 FLU/min, the Vmax [5] was 10 ± 1.4 FLU/min and the Vmax [6] was 5 ± 0.2 FLU/min. The Vmax [7] was 7 ± 0.8 FLU/min, the Vmax [8] was 4 ± 0.4 FLU/min and the Relative activity [9] was 18%. It also gave a Relative activity [10] of 100% and a Relative activity [11] of 81%.
